Reference: patent publication US6737383B1, “Herbicidal oxadiazolidines” (priority 1999, dated 2004)

Experiments:
[1] = tested on: bamyardgrass; assay: Test B flood test barnyardgrass; type: in vivo, Echinochloa crus-galli
Procedure, shortened: (§1)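 Read-out is a visual response score from 0 (no effect) to 10 (complete control), assigned by comparison with untreated controls. Treatment was applied at the 2-leaf stage, and plants stayed in the greenhouse for twelve to sixteen days before scoring.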

[2] = tested on: soybean; assay: Test B pre/postemergence soybean; type: in vivo, Glycine max; settings: for Soybean plant response rating (0 to 10 scale): 0 is no effect
Procedure, shortened: (§2)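 Response is a visual 0-to-10 score relative to untreated plants, where 0 means no effect and 10 means complete control, taken twelve to sixteen days after application. Treatments went onto soil at planting and onto foliage of 1- to 4-leaf plants, using a surfactant-containing non-phytotoxic solvent.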

[3] = tested on: rice; assay: Test B flood test rice; type: in vivo, Oryza sativa
Procedure, shortened: as §1

[4] = tested on: giant foxtail; assay: Test B pre/postemergence giant foxtail; type: in vivo, Setaria faberii; settings: for Giant foxtail plant response rating (0 to 10 scale): 0 is no effect
Procedure, shortened: as §2

[5] = Postemergence (flood test species), Rate 125 g/ha, scale of 0 to 10 where 0 is no effect and 10 is complete control
[6] = Rate 62 g/ha, Postemergence section, flood test species, scale of 0 to 10 where 0 is no effect and 10 is complete control
[7] = Rate 250 g/ha, Postemergence (flood test), scale 0 to 10, 0 is no effect, 10 is complete control
[8] = Rate 500 g/ha, listed under Postemergence (flood test species), scale 0 to 10, 0 no effect, 10 complete control
[9] = Postemergence, Rate 125 g/ha, scale of 0 to 10 where 0 is no effect and 10 is complete control
[10] = Preemergence, Rate 62 g/ha, scale 0 to 10 (0 no effect, 10 complete control)
[11] = Preemergence, Rate 125 g/ha, 10 is complete control
[12] = Preemergence, Rate 250 g/ha, scale 0 to 10, 0 is no effect, 10 is complete control
[13] = Preemergence, Rate 500 g/ha, scale 0 to 10 (0 no effect, 10 complete control)
[14] = Rate 62 g/ha, Postemergence, scale of 0 to 10 where 0 is no effect and 10 is complete control
[15] = Rate 250 g/ha, Postemergence, scale 0 to 10, 0 is no effect, 10 is complete control
[16] = Rate 500 g/ha, Postemergence, scale 0 to 10
[17] = Rate 500 g/ha, listed under Postemergence (flood test species), scale 0 to 10
[18] = Preemergence, Rate 62 g/ha, scale of 0 to 10 where 0 is no effect and 10 is complete control
[19] = Rate 62 g/ha, headed Pre-emergence (flood test species), scale 0 to 10 (0 no effect, 10 complete control)
[20] = Rate 125 g/ha, Pre-emergence, flood test species, scale 0 to 10 where 0 is no effect and 10 is complete control
[21] = Rate 250 g/ha, Pre-emergence, flood-test species, scale 0 to 10, 0 is no effect, 10 is complete control
[22] = Rate 500 g/ha, headed Pre-emergence (flood test species), scale 0 to 10 (0 no effect, 10 complete control)
[23] = Rate 125 g/ha, Postemergence, scale 0 to 10
[24] = Rate 1000 g/ha, Pre-emergence (as headed), scale 0 to 10
[25] = Postemergence, Rate 1000 g/ha, scale 0 to 10 (0 no effect, 10 complete control)
[26] = Rate 1000 g/ha, Preemergence, scale 0 to 10 (0 no effect, 10 complete control)
[27] = Rate 2000 g/ha, Postemergence, scale 0 to 10
[28] = Rate 2000 g/ha, Preemergence, scale 0 to 10

Row | SMILES | Soybean plant response rating (0 to 10 scale) [2, 11] | Soybean plant response rating [2, 12] | Soybean plant response rating [2, 13] | Soybean plant response rating [2, 14] | Soybean plant response rating [2, 16] | Giant foxtail plant response rating (0 to 10 scale) [4, 11] | Giant foxtail plant response rating [4, 12] | Giant foxtail plant response rating [4, 13] | Giant foxtail plant response rating [4, 14] | Giant foxtail plant response rating [4, 16] | Soybean plant response rating [2, 18] | Giant foxtail plant response rating [4, 18] | Barnyardgrass plant response rating [1, 19] | Barnyardgrass plant response rating [1, 20] | Barnyardgrass plant response rating [1, 21] | Plant response rating, Barnyardgrass [1, 22] | Soybean plant response rating [2, 23] | Plant response rating (0 to 10; 0 is no effect, 10 is complete control), Soybean ([2]; Rate 250 g/ha, Postemergence) | Rice plant response rating [3, 19] | Rice plant response rating [3, 20] | other results
1 | COc1ccccc1Cn1c(=O)on(C(=O)N(c2ccc(F)cc2)C(C)C)c1=O [Compound 143] | 0 | 0 | 1 | 3 | 5 | 9 | 9 | 10 | 0 | 7 | – | – | – | – | – | – | – | – | – | – | Barnyardgrass plant response rating [1, 5]: 8; Barnyardgrass plant response rating [1, 6]: 0; Plant response rating, Barnyardgrass [1, 7]: 8; Barnyardgrass plant response rating [1, 8]: 10; Soybean plant response rating [2, 9]: 3; Soybean plant response rating [2, 10]: 0; Plant response rating, Soybean [2, 15]: 4; Rice plant response rating [3, 5]: 0; Rice plant response rating [3, 6]: 0; Plant response rating, Rice [3, 7]: 2; Rice plant response rating [3, 17]: 4; Giant foxtail plant response rating [4, 9]: 2; Giant foxtail plant response rating [4, 10]: 3; Plant response rating, Giant foxtail [4, 15]: 5
2 | CN(C(=O)n1oc(=O)n(Cc2ccccc2)c1=O)c1ccccc1 [Compound 153] | 0 | 0 | 0 | 0 | 0 | 0 | 0 | 0 | 0 | 0 | – | – | – | – | – | – | – | – | – | – | Barnyardgrass plant response rating [1, 5]: 0; Barnyardgrass plant response rating [1, 6]: 0; Plant response rating, Barnyardgrass [1, 7]: 0; Barnyardgrass plant response rating [1, 8]: 0; Soybean plant response rating [2, 9]: 0; Soybean plant response rating [2, 10]: 0; Plant response rating, Soybean [2, 15]: 0; Rice plant response rating [3, 5]: 0; Rice plant response rating [3, 6]: 0; Plant response rating, Rice [3, 7]: 0; Rice plant response rating [3, 17]: 0; Giant foxtail plant response rating [4, 9]: 0; Giant foxtail plant response rating [4, 10]: 0; Plant response rating, Giant foxtail [4, 15]: 0
3 | CC(C)N(C(=O)n1oc(=O)[nH]c1=O)c1ccc(F)cc1 [Compound 164] | 0 | 0 | 0 | 0 | 2 | 0 | 0 | 2 | 0 | 7 | 0 | 0 | – | – | – | – | – | – | – | – | Barnyardgrass plant response rating [1, 5]: 0; Barnyardgrass plant response rating [1, 6]: 0; Plant response rating, Barnyardgrass [1, 7]: 0; Barnyardgrass plant response rating [1, 17]: 0; Soybean plant response rating [2, 9]: 1; Plant response rating, Soybean [2, 15]: 2; Rice plant response rating [3, 5]: 0; Rice plant response rating [3, 6]: 0; Plant response rating, Rice [3, 7]: 0; Rice plant response rating [3, 17]: 0; Giant foxtail plant response rating [4, 9]: 0; Plant response rating, Giant foxtail [4, 15]: 0
4 | COc1nc(OC)nc(N(C(=O)n2oc(=O)n(-c3c(C)cccc3C)c2=O)C(C)C)n1 [Compound 180] | 0 | 0 | 0 | 0 | 0 | 0 | 0 | 0 | 0 | 0 | 0 | 0 | 0 | 0 | 0 | 0 | 0 | 0 | 0 | 0 | Rice plant response rating [3, 21]: 0; Plant response rating, Rice [3, 22]: 0; Giant foxtail plant response rating [4, 23]: 0; Plant response rating (0 to 10; 0 is no effect, 10 is complete control), Giant foxtail ([4]; Rate 250 g/ha, Postemergence): 0
5 | CCN(C(=O)n1oc(=O)n(N(C)c2ccccc2)c1=O)C1CCCCC1 [Compound 183] | 0 | 0 | 0 | 0 | 2 | 0 | 0 | 3 | 0 | 0 | 0 | 0 | 0 | 0 | 0 | 0 | 1 | 2 | 0 | 0 | Barnyardgrass plant response rating [1, 24]: 0; Barnyardgrass plant response rating ([1]; Rate 2000 g/ha, Pre-emergence (as headed), scale 0 to 10, 0 no effect, 10 complete control): 0; Soybean plant response rating [2, 25]: 2; Plant response rating, Soybean [2, 26]: 0; Soybean plant response rating [2, 27]: 3; Soybean plant response rating [2, 28]: 0; Rice plant response rating [3, 21]: 0; Plant response rating, Rice [3, 22]: 0; Rice plant response rating [3, 24]: 0; Rice plant response rating ([3]; Rate 2000 g/ha, Pre-emergence (as headed), scale 0 to 10): 0; Giant foxtail plant response rating [4, 25]: 0; Giant foxtail plant response rating [4, 23]: 0; Plant response rating (0 to 10; 0 is no effect, 10 is complete control), Giant foxtail ([4]; Rate 250 g/ha, Postemergence): 0; Plant response rating, Giant foxtail [4, 26]: 6; Giant foxtail plant response rating [4, 27]: 0; Giant foxtail plant response rating [4, 28]: 9
6 | CC(C)N(C(=O)n1oc(=O)n(C2CCCC(C(F)(F)F)C2)c1=O)c1ccc(F)cc1 (stereo not shown) [Compound 184] | 0 | 0 | 0 | 1 | 3 | 9 | 10 | 10 | 0 | 2 | 0 | 0 | 0 | 0 | 0 | 6 | 1 | 3 | 0 | 0 | Barnyardgrass plant response rating [1, 17]: 0; Barnyardgrass plant response rating [1, 24]: 3; Soybean plant response rating [2, 25]: 4; Plant response rating, Soybean [2, 26]: 0; Rice plant response rating [3, 21]: 0; Plant response rating, Rice [3, 22]: 0; Rice plant response rating [3, 24]: 0; Giant foxtail plant response rating [4, 25]: 3; Giant foxtail plant response rating [4, 23]: 0; Plant response rating (0 to 10; 0 is no effect, 10 is complete control), Giant foxtail ([4]; Rate 250 g/ha, Postemergence): 0; Plant response rating, Giant foxtail [4, 26]: 10
7 | CCN(Cc1ccncc1)C(=O)n1oc(=O)n(C(C)C)c1=O [Compound 189] | 0 | 0 | 0 | 0 | 0 | 0 | 3 | 6 | 0 | 0 | 0 | 0 | 0 | 0 | 0 | 0 | 0 | 0 | 0 | 0 | Rice plant response rating [3, 21]: 0; Plant response rating, Rice [3, 22]: 0; Giant foxtail plant response rating [4, 23]: 0; Plant response rating (0 to 10; 0 is no effect, 10 is complete control), Giant foxtail ([4]; Rate 250 g/ha, Postemergence): 0
